Measurements from PubChem BioAssay (NCI).
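Each compound was tested at five concentrations against cells in 96-well plates for 48 hours. GI50: concentration for 50% inhibition of growth. TGI: concentration producing complete growth inhibition.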

Columns and labels:
Test in all cases: inhibition of tumour cell growth, NCI panel, 48 h
K-562 leukemia = test system: K-562 leukemia
MOLT-4 leukemia = test system: MOLT-4 leukemia
ACHN renal = test system: ACHN renal
A498 renal = test system: A498 renal
HL-60(TB) leukemia = test system: HL-60(TB) leukemia
RXF 393 renal = test system: RXF 393 renal
NCI/ADR-RES ovarian = test system: NCI/ADR-RES ovarian
U251 CNS = test system: U251 CNS
IGROV1 ovarian = test system: IGROV1 ovarian
CCRF-CEM leukemia = test system: CCRF-CEM leukemia

`CCCCCC[C@H](C)Nc1nc2ccccc2c2occc12` was tested, and the GI50 (K-562 leukemia) was 16.3 µM, the TGI (K-562 leukemia) was over 100 µM and the GI50 (MOLT-4 leukemia) was 3.47 µM. For the same molecule, the TGI (MOLT-4 leukemia) was 16.2 µM, the GI50 (ACHN renal) was 11.7 µM and the TGI (ACHN renal) was 23.9 µM. For the same molecule, the GI50 (A498 renal) was 11.3 µM, the TGI (A498 renal) was 25.8 µM and the GI50 (HL-60(TB) leukemia) was 11.9 µM. For the same molecule, the TGI (HL-60(TB) leukemia) was 37.8 µM, the GI50 (RXF 393 renal) was 12.6 µM and the TGI (RXF 393 renal) was 30.6 µM. For the same molecule, the GI50 (NCI/ADR-RES ovarian) was 0.147 µM, the TGI (NCI/ADR-RES ovarian) was 12.8 µM and the GI50 (U251 CNS) was 9.94 µM. For the same molecule, the TGI (U251 CNS) was 21.7 µM, the GI50 (IGROV1 ovarian) was 0.787 µM and the TGI (IGROV1 ovarian) was 13.2 µM. The GI50 (CCRF-CEM leukemia) was 4.33 µM and the TGI (CCRF-CEM leukemia) was 21.1 µM.
For `C=C1CCC2(C#N)[C@H]3[C@H](CC[C@@H]2C)[C@@H](C)C[C@@H](CC(C)(C)NC(=O)CN2CCC2=O)[C@H]13` (some centres not stated), the GI50 (K-562 leukemia) was 3.69 µM, the TGI (K-562 leukemia) was 53.1 µM and the GI50 (MOLT-4 leukemia) was 13.8 µM. It also gave a TGI (MOLT-4 leukemia) of 70.3 µM, a GI50 (ACHN renal) of 11.3 µM and a TGI (ACHN renal) of 51.4 µM. The GI50 (A498 renal) was 9.03 µM, the TGI (A498 renal) was 53.1 µM and the GI50 (HL-60(TB) leukemia) was 5.05 µM. The TGI (HL-60(TB) leukemia) was 37 µM, the GI50 (RXF 393 renal) was 11.5 µM and the TGI (RXF 393 renal) was 28 µM. It also gave a GI50 (NCI/ADR-RES ovarian) of 11.3 µM, a TGI (NCI/ADR-RES ovarian) of 38.4 µM and a GI50 (U251 CNS) of 4.27 µM. The TGI (U251 CNS) was 16.6 µM, the GI50 (IGROV1 ovarian) was 6.03 µM and the TGI (IGROV1 ovarian) was 23 µM. For the same molecule, the GI50 (CCRF-CEM leukemia) was 12.8 µM and the TGI (CCRF-CEM leukemia) was 80.3 µM.
With `COc1cc2c(cc1O)CC1c3c(cc(O)c(OC)c3-2)CCN1C` (configuration not stated) the TGI (K-562 leukemia) was over 100 µM, the TGI (MOLT-4 leukemia) was over 100 µM and the TGI (ACHN renal) was over 100 µM. The TGI (A498 renal) was over 100 µM, the TGI (HL-60(TB) leukemia) was over 100 µM and the TGI (RXF 393 renal) was over 100 µM. It also gave a TGI (NCI/ADR-RES ovarian) of over 100 µM, a TGI (U251 CNS) of over 100 µM and a TGI (IGROV1 ovarian) of over 100 µM. It also gave a TGI (CCRF-CEM leukemia) of over 100 µM.
In the case of `COc1cc(C)c(C2NC(=O)c3ccccc3N2)cc1C` (configuration not stated), the TGI (K-562 leukemia) was over 52.2 µM, the TGI (MOLT-4 leukemia) was 35.8 µM and the TGI (ACHN renal) was over 95.4 µM. The TGI (A498 renal) was 4.77 µM, the TGI (HL-60(TB) leukemia) was 0.396 µM and the TGI (RXF 393 renal) was 8.61 µM. For the same molecule, the TGI (NCI/ADR-RES ovarian) was 0.679 µM, the TGI (U251 CNS) was 13.9 µM and the TGI (IGROV1 ovarian) was over 100 µM. The TGI (CCRF-CEM leukemia) was 18.1 µM.
`O=C1CCC(N2C(=O)c3ccccc3C2=O)C(=O)N1` (configuration not stated) showed a TGI (K-562 leukemia) of over 100 µM, a TGI (MOLT-4 leukemia) of over 100 µM and a TGI (ACHN renal) of over 100 µM. The GI50 (A498 renal) was over 100 µM, the TGI (A498 renal) was over 100 µM and the GI50 (HL-60(TB) leukemia) was over 100 µM. For the same molecule, the TGI (HL-60(TB) leukemia) was over 100 µM, the TGI (RXF 393 renal) was over 100 µM and the TGI (NCI/ADR-RES ovarian) was over 100 µM. For the same molecule, the TGI (U251 CNS) was over 100 µM, the TGI (IGROV1 ovarian) was over 100 µM and the TGI (CCRF-CEM leukemia) was over 100 µM.
Molecule `Cc1c2cc(Cl)c3ccccc3c2c[n+]2ccccc12` has a GI50 (K-562 leukemia) of 2.98 µM, a TGI (K-562 leukemia) of 27.2 µM and a GI50 (MOLT-4 leukemia) of 4.5 µM. The TGI (MOLT-4 leukemia) was 34.9 µM, the GI50 (ACHN renal) was 22 µM and the TGI (ACHN renal) was over 100 µM. It also gave a GI50 (A498 renal) of over 49.4 µM, a TGI (A498 renal) of over 100 µM and a GI50 (HL-60(TB) leukemia) of 19.2 µM. It also gave a TGI (HL-60(TB) leukemia) of 55.3 µM, a GI50 (RXF 393 renal) of 12.3 µM and a TGI (RXF 393 renal) of over 65.5 µM. The GI50 (NCI/ADR-RES ovarian) was over 100 µM, the TGI (NCI/ADR-RES ovarian) was over 100 µM and the GI50 (U251 CNS) was 0.468 µM. For the same molecule, the TGI (U251 CNS) was 3.61 µM, the GI50 (IGROV1 ovarian) was 9.18 µM and the TGI (IGROV1 ovarian) was 60.3 µM. For the same molecule, the GI50 (CCRF-CEM leukemia) was 3.36 µM and the TGI (CCRF-CEM leukemia) was 26.3 µM.
`c1ccc(-c2nc(N3CCOCC3)c3c4c(sc3n2)CCCCCC4)nc1` showed a GI50 (K-562 leukemia) of 3.47 µM, a TGI (K-562 leukemia) of 23.7 µM and a GI50 (MOLT-4 leukemia) of 3.77 µM. For the same molecule, the TGI (MOLT-4 leukemia) was 17 µM, the GI50 (ACHN renal) was 4.49 µM and the TGI (ACHN renal) was 16.6 µM. The GI50 (A498 renal) was 1.65 µM, the TGI (A498 renal) was 8.63 µM and the GI50 (HL-60(TB) leukemia) was 4.49 µM. The TGI (HL-60(TB) leukemia) was 22.8 µM, the GI50 (RXF 393 renal) was 8.38 µM and the TGI (RXF 393 renal) was 25.5 µM. The GI50 (NCI/ADR-RES ovarian) was 0.836 µM, the TGI (NCI/ADR-RES ovarian) was 18.2 µM and the GI50 (U251 CNS) was 4.38 µM. It also gave a TGI (U251 CNS) of 17 µM, a GI50 (IGROV1 ovarian) of 3.16 µM and a TGI (IGROV1 ovarian) of 9.95 µM. For the same molecule, the GI50 (CCRF-CEM leukemia) was 3.59 µM and the TGI (CCRF-CEM leukemia) was 18.9 µM.
